This note sets out measurements from ChEMBL document CHEMBL5512603, “Development of de-novo coronavirus 3-chymotrypsin-like protease (3CLpro) inhibitors since COVID-19 outbreak: A strategy to tackle challenges of persistent virus infection” (Eur J Med Chem, 2024).

Data set [1] has as its target T1, Replicase polyprotein 1ab (Severe acute respiratory syndrome coronavirus 2, UniProt P0DTD1). The experiment in a line: Inhibition of SARS-CoV-2 3CLp using fluorescent substrate by FRET assay.
The subject of data set [2] is SARS-CoV-2. The experiment in a line: Antiviral activity against wild type SARS-CoV-2 infected in human Calu-3 cells. The class given is functional, organism-based. Conditions: Severe acute respiratory syndrome coronavirus 2, Calu-3.
In data set [3] the target is T1, Replicase polyprotein 1ab. Briefly: Inhibition of SARS-CoV-2 recombinant 3CLpro using fluorogenic substrate (Dabcyl-KTSAVLQ]SGFRK M-E.
The target in data set [4] is T1, Replicase polyprotein 1ab. The experiment in a line: Inhibition of recombinant SARS-CoV2 6xHis-tag-Main protease containing modified HRV-3C expressed in Escherichia coli using Mca-AVLQSGFR-K(Dnp)K peptide substrate assessed as fluorescent intensity.
A short description of data set [5]: Oral bioavailability in Sprague-Dawley rat at 20 mg/kg. The class given is ADME, organism-based. Conditions: in vivo.
Data set [6] has as its system SARS-CoV-2. The experiment in a line: Antiviral activity against SARS-CoV-2 infected in African green monkey Vero E6 cells at 0.1 MOI assessed as inhibition of virus induced cytopathic effect by CCK8 assay. The class given is functional, organism-based. The note with it: Severe acute respiratory syndrome coronavirus 2, Vero C1008.
Data set [7] can be described thus: Bioavailability in Sprague-Dawley rat at 20 mg/kg, ip. Format: ADME, organism-based. Conditions: in vivo.
The subject of data set [8] is SARS-CoV-2. The experiment in a line: Antiviral activity against SARS-CoV-2 infected in HAPEpIC cells at 0.01 MOI assessed as reduction in viral RNA copies by RT-qPCR analysis. The note with it: Severe acute respiratory syndrome coronavirus 2. Format: functional, organism-based. Background: Real-time PCR tracks product formation cycle by cycle.
Data set [9] concerns the target T1, Replicase polyprotein 1ab. The experiment in a line: Inhibition of SARS-CoV-2 Main protease assessed as hydrolysis of quenched fluorogenic substrate.
The target of data set [10] is Protein cereblon/Replicase polyprotein 1ab (Severe acute respiratory syndrome coronavirus 2, UniProt P0DTD1+Q96SW2). Briefly: PROTAC activity at SARS-CoV-2 Main protease/CRBN (unknown origin) in SARS-CoV-2 infected african green monkey Vero cell assessed as inhibition of virus-mediated cytopathic effect measured after 72 hrs. The class given is cell-based. A general note: Damage to the host cells serves as the signal in cytopathic effect assays.

In data set [11] the test system is SARS-CoV-2. The experiment in a line: Antiviral activity against SARS-CoV-2 infected in African green monkey Vero E6 cells assessed as inhibition of viral replication incubated by plaque reduction assay. The class given is functional, organism-based. Conditions: Severe acute respiratory syndrome coronavirus 2, Vero C1008. In general terms: In a plaque reduction assay, fewer plaques than in the control indicate reduced infectivity or spread.

A short description of data set [12]: Oral bioavailability in Sprague-Dawley rat at 10 mg/kg. Format: ADME, organism-based. The note with it: in vivo.
The target in data set [13] is T1, Replicase polyprotein 1ab. Briefly: Inhibition of recombinant SARS-CoV-2 3CLp using fluorogenic substrate by microplate reader.
Data set [14] can be described thus: Oral bioavailability in rat. Format: ADME, organism-based. The note with it: in vivo.
Data set [15] in a line: AUClast in po dosed rat. The class given is ADME, organism-based. The note with it: in vivo.
Data set [16] is described as follows: Cmax in po dosed rat. The note with it: in vivo. The class given is ADME, organism-based.
A short description of data set [17]: Tmax in po dosed rat. Conditions: in vivo. Format: ADME, organism-based.
A short description of data set [18]: Half life in po dosed rat. The note with it: in vivo. The class given is ADME, organism-based.
For data set [19], the system named is SARS-CoV-2. The experiment in a line: Antiviral activity against SARS-CoV-2 Delta. The class given is functional. The note with it: Severe acute respiratory syndrome coronavirus 2, Delta.

Sequence of Protein cereblon/Replicase polyprotein 1ab (Q96SW2 whole entry, other chains not shown): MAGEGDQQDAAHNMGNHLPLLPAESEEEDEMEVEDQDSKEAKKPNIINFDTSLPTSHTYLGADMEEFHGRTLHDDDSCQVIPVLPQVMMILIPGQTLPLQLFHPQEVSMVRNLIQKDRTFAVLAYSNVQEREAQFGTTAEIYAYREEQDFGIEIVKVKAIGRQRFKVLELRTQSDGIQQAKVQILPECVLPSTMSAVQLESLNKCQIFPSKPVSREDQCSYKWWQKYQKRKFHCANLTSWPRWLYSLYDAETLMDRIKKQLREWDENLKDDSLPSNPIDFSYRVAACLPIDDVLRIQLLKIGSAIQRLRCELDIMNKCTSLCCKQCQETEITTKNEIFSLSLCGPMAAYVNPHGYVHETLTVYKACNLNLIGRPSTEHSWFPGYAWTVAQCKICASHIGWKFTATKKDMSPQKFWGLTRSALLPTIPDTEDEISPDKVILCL

Regarding `C[C@H](NC(=O)[C@@H](c1cccnc1)N(C(=O)CC#N)c1ccc(-c2ccccc2)cc1)c1ccccc1`, the IC50 in data set [1] turned out to be 500 nM. This compound also had an EC50 in data set [2] of 2920 nM.

With `CNC(=O)c1cc(C)cc([N+](=O)[O-])c1N1CC[C@]2(CCN(C(=O)c3cncc4cc(O)ccc34)C2)C1`, the IC50 in data set [3] came to 49500 nM. Still for that read-out and setting: then `CNC(=O)c1cc(Br)cc([N+](=O)[O-])c1N[C@@H]1CCC[C@H](NC(=O)c2cncc3cccc(O)c23)C1`, with 62500 nM.

With `O=c1c2cccc(Br)c2sn1-c1ccccc1`, the IC50 in data set [4] was above 100000 nM. Turning to `O=C[C@@H](C[C@H]1CCNC1=O)NC(=O)[C@H]1[C@@H]2CCC[C@@H]2CN1C(=O)COc1ccc(Cl)cc1Cl`, the bioavailability in data set [5] is 14.6%; in data set [7], 76.2%. Besides, the EC50 was determined as 540 nM in data set [6] and 1.1 nM in data set [8]. As for `Cc1c(Br)cncc1NC[C@@H](N)CC1CCCCC1`, the IC50 in [9] turned out to be 7500 nM.

For `CC(C)C[C@H](NC(=O)Oc1ccc(OCc2cn(CCCCCOCC(=O)Nc3cccc4c3C(=O)N(C3CCC(=O)NC3=O)C4=O)nn2)cc1)C(=O)N[C@H](CO)C[C@@H]1CCNC1=O` (stereo partly specified), in data set [10], the EC50 amounted to 250 nM. Consider `O=C1NCC[C@H]1C[C@H](NC(=O)[C@@H]1[C@H]2CCC[C@H]2CN1C(=O)COc1ccc(Cl)cc1Cl)C(=O)CF`, for which the EC50 in data set [11] came out at 240 nM. The compound further yielded a bioavailability in data set [12] of 55.1%. Further, the IC50 in data set [13] turned out to be 18 nM.

Take `Cn1cc2cc(/N=c3\[nH]c(=O)n(Cc4cnn[nH]4)c(=O)n3Cc3cc(F)c(F)cc3F)c(Cl)cc2n1`: the bioavailability in data set [14] is 88.1%. In addition, the AUC(0-t) in [15] stood at 32600 ng·h/mL. In [16], this compound gave a Cmax of 6270 ng/mL. In data set [17], the Tmax turned out to be 1 h. The compound also had a half-life in data set [18] of 2.51 h. For the compound `Cc1c(COC2CCC(OC(=O)N[C@@H](CC(C)C)C(=O)N[C@H](C=O)C[C@@H]3CCNC3=O)CC2)nnn1CCOCCNC(=O)CCC(=O)Nc1cccc2c1C(=O)N(C1CCC(=O)NC1=O)C2=O` (stereo partly specified), the EC50 in [10] was 620 nM.

With `N#C[C@H](C[C@@H]1CCCNC1=O)NC(=O)[C@H](CC1CC1)NC(=O)c1cc2cccc(Cl)c2[nH]1` [POMOTRELVIR], in data set [19], it took 78 nM to reach the 90% level (EC90).

The IC50 is the concentration needed to halve the response being measured. In general, EC50 refers to the concentration needed to bring the measured effect to its halfway point. The term bioavailability denotes the share of a dose that reaches the circulation, judged against a reference dose that is usually intravenous. One may read the AUC(0-t) as the area under the concentration-time curve up to a stated or last time point. Broadly, the Cmax is the peak of the concentration-time curve. As a reminder, the Tmax is the time from dosing to the highest level. For orientation: half-life means the time needed for the level to fall by half in the phase considered. The term EC90 denotes the concentration needed for an effect of 90%.
